# Results as given in US20240309014A1, “MACROCYCLIC COMPOUNDS AND USES THEREOF” (President and Fellows of Harvard College, priority 2017, published 2024).
# Key:
# [1] = test system: U2OS-EB3-AG cells; test: Antiproliferative activity in U2OS-EB3-AG cells; assay type: cell-based
# [2] = test system: CD31-positive vessel in FaDu tumor; test: Effect on CD31-positive vessel in the FaDu subcutaneous model (FIG. 13); assay type: in vivo, nude mice; conditions: single i.v. administration at 20, 60, and 180 μg/kg, five days after
# Protocol: A human squamous cell carcinoma of the head and neck (SCCHN) cell line FaDu, which had been cultured in an RPMI-1640 medium containing 10% FBS, and penicillin-streptomycin (culture medium), was adjusted to a concentration of 5×10^7 cells/mL with culture medium to prepare a cell suspension. The cell suspension was inoculated in a volume of 100 μL into a subcutaneous part of a right flank of nude mice, 6 weeks of ages (CAnN.Cg-Foxnlnu/CrlCrlj, female, Charles River Laboratories Japan, Inc.). Ten days after cell inoculation, the mice were grouped such that averages of the tumor volumes were substantially equal among the groups. The experiment was conducted on groups each consisting of 6 mice. Each test compound was dissolved in DMSO and a solution was stored in the freezer before use. Immediately before the administration, the stock solution was diluted with saline. […] The number of blood vessels in the whole tumor was quantified by counting the CD31-positive objects using inform 2 software (PerkinElmer Inc.) Area of the tumor region was measured by assessing the hematoxylin-staining area using inform 2 software (PerkinElmer Inc.) The number of blood vessels was normalized by the area of the tumor region. […] The ratios of blood vessel number in the test compound-dosing groups compared to non-treat group were calculated with the below formula: […]
# [3] = test system: BJ normal human fibroblasts stimulated with TGF-β; test: TGF-β-treated BJ cells, in vitro CAF-inducing system; assay type: cell-based
# Protocol: FIG. 19A. BJ cells (normal human […] fibroblasts) were co-cultured with FaDu cells for three days in the absence (vehicle) or presence of A83-01, a potent selective TGF-β-R inhibitor, and the expression of α-SMA was analysed by immunofluorescence staining (red color). Samples were also stained with anti-pan-human cytokeratin (green color) for cancer cell staining and DAPI (blue color) for nuclear staining. FIGS. 19B-19E BJ cells were treated with Compound (1) (0.15 nmol/L in immunofluorescence staining data and indicated concentrations in western blot analysis data) and TGF-β for 2 days. FIGS. 19B-19E. Samples were stained with the indicated antibody (red color) and DAPI (blue color) for nuclear staining. FIG. 19E Western blot images and quantification of the images. […] FIGS. 19G and 19E BJ cells were pretreated with defactinib (1 μmol/L) and TGF-β for 2 days. The lens magnification used was x4 (FIGS. 19A, 19B, 19C, 19G, and 19H) or x40 (FIGS. 19D and 19E).
# FIGS. 20A and 20B. Quantification of immunofluorescence images of BJ cells treated with TGF-β(1 ng/mL) and the indicated concentrations of Compound (1) for α-SMA (FIG. 20A), Phospho-S6-ribosomal protein (Ser235/236) (FIG. 20B). FIG. 20C. Immunofluorescence analysis of BJ cells treated with TGF-β in the absence or presence of dactolisib, a phosphatidylinositol 3 kinase inhibitor. FIG. 20D. Immunofluorescence analysis of phosphorylated Smad⅔ in BJ cells pretreated with Compound (1) (72 hours) after 30 minutes of stimulation with TGF-β. Acetylated-α-tubulin was co-stained to confirm the activity of Compound (1). FIG. 20E. Western blot analysis of Smad⅔ in BJ cells treated with TGF-β and the indicated concentrations of Compound (1). The lens magnification used was x4 (FIG. 20C) or x40 (FIG. 20D).
# The expression of α-SMA was induced in BJ normal human fibroblasts upon co-cultivation with FaDu cells, and the expression was attenuated by treatment with A83-01, a potent selective inhibitor of the TGF-β-receptor (FIG. 19A).
# Under the same experimental conditions, the enhanced formation of focal adhesions, which were detected as punctate structures with an antibody against phosphorylated FAK at tyrosine-397, after stimulation with TGF-β was decreased in BJ cells by treatment with Compound (1) (FIG. 19E). Many signalling complexes are assembled in focal adhesion sites, and those complexes dispatch several downstream signals, including those involved in the PI3K/AKT/mTOR pathway. See, e.g., Sulzmaier et. al. “FAK in cancer: mechanistic findings and clinical applications”, Nature Reviews Cancer 2014, 14, 598-610.
# [4] = test system: human duodenal cell line HuTu 80 xenograft; test: HuTu 80 xenograft model as monotherapy (FIG. 23); assay type: in vivo, nude mice
# Protocol: A human duodenal cell line HuTu 80, which had been cultured in a EMEM containing 10% FBS, and penicillin-streptomycin, was adjusted to a concentration of 3×10^7 cells/mL in PBS to prepare a cell suspension. The cell suspension was inoculated in a volume of 100 μL into a subcutaneous part of a right flank of nude mice, 7 weeks of ages (CAnN.Cg-Foxnlnu/CrlCrlj, female, Charles River Laboratories Japan Inc.). Seven days after cell inoculation (Day 1), the shortest diameter and the longest diameter of a tumor in each mouse were measured by using an electronic digital caliper (Digimatic™ caliper, Mitutoyo Corporation), so as to calculate the volume of the tumor in accordance with the following calculation formulae: […]
# On the basis of the volumes of tumors obtained on Day 1, the mice were grouped such that averages of the tumor volumes were substantially equal among the groups. The experiment was conducted on groups each consisting of six mice. Compound (1) was dissolved in DMSO and a solution was stored in the freezer before use. Immediately before the administration, the stock solution was diluted with saline. The test compound in saline was intravenously once-weekly administered at 45, 90, or 180 μg/kg for 2 weeks (on Day 1 and Day 8).
structure (smiles),measurement,setting,value
C=C1C[C@@H]2CC[C@@]34C[C@H]5O[C@H]6[C@@H](O3)[C@H]3O[C@H](CC[C@@H]3O[C@H]6C5O4)CC(=O)O[C@@H]3[C@@H](C)[C@@H]4O[C@@H]5C[C@]6(C[C@@H]7O[C@]8(C[C@H](C)[C@@H]9O[C@H](CN)[C@H](O)C[C@@H]9O8)C[C@H](C)[C@@H]7O6)O[C@@H]5C[C@@H]4O[C@H]3C[C@H]3O[C@@H](CC[C@@H]1O2)C[C@@H](C)C3=C (stereo in doubt) [Compound (1)],IC50,[1],0.5 nM
same,tumor blood vessel number,[2],increased the tumor blood vessel number
same,TGF-β-induced phosphorylation and nuclear localization of Smad⅔,[3]; BJ cells,did not significantly change
same,enhanced formation of focal adhesions (phosphorylated FAK at tyrosine-397),[3]; BJ cells after stimulation with TGF-β,decreased
same,activation of the PI3K/AKT/mTOR pathway,[3]; BJ cells treated with TGF-β,reduce the activation of the PI3K/AKT/mTOR pathway
same,TGF-β-enhanced P3-tubulin expression and microtubule network formation,"[3]; BJ cells, co-treatment with TGF-β",diminished
same,α-SMA induction by TGF-β,"[3]; BJ cells, immunofluorescence, 2 days",interfered with α-SMA induction by TGF-β in BJ cells without growth inhibitory activity
same,Tumor Regression (%),[4]; 0.18 mg/kg i.v. Day 1 and Day 8,99%
same,antitumor effect,[4]; 180 μg/kg i.v. Day 1 and Day 8,tumor regression
same,antitumor effect,[4]; 45 and 90 μg/kg i.v. Day 1 and Day 8,tumor growth delay
